Source: patent publication EP4744665A1, “COMBINATION OF POLQ INHIBITOR COMPOUND AND ANTI-CANCER THERAPEUTIC AGENT OR RADIOTHERAPY” (Simcere Zaiming Pharmaceutical Co., Ltd., priority 2023, dated 2025)

Tests used:
[1] = test system: human colorectal adenocarcinoma DLD1 BRCA2-/- cells; experiment: Efficacy of combined use with olaparib in DLD1 BRCA2-/- xenograft tumor model; assay type: in vivo, NU/NU nude mice; details: 10 mg/kg QD intragastric in combination with 50 mg/kg olaparib QD
Source text: The anti-tumor activity of the sodium salt of compound I used in combination with olaparib (MCE, 136925) was studied using a DLD1 BRCA2-/- subcutaneous tumor model. 32 female NU/NU nude mice (6-8 weeks old, Beijing Vital River Laboratory Animal Technology Co., Ltd.) were subcutaneously inoculated with 1 × 10^7 human colorectal adenocarcinoma DLD1 BRCA2-/- cells (Horizon- HD105-007). When the tumors grew to 80-100 mm^3, the mice were randomly divided into four groups with eight mice per group: a first group treated with vehicle control (QD) by intragastric administration, a second group treated with a 10 mg/kg solution of the sodium salt of compound I (QD) by intragastric administration, a third group treated with a 50 mg/kg olaparib solution (QD) by intragastric administration, and a fourth group treated with a 10 mg/kg solution of the sodium salt of compound I (QD) by intragastric administration and a 50 mg/kg olaparib solution (QD) by intragastric administration. The vehicle of olaparib was a solution containing 10% DMSO, 50% 2-hydroxypropyl-β-cyclodextrin (Aladdin-F2223139, 60% aqueous solution), and 40% water, the vehicle of the sodium salt of compound I was 10% (w/v) Vitamin E TPGS (Hanhong Chemical-BH-GN0100619-22 1101) aqueous solution, and the vehicle of the vehicle control group was a mixture of the vehicle of olaparib and the vehicle of the sodium salt of compound I (mixed at a volume ratio of 1:1). Mice had free access to food and water throughout the experiment.
(§1) Tumor diameters were measured twice weekly using a vernier caliper. The tumor volume (V) was calculated using the following formula: V = 0.5a × b^2, wherein a and b represent the long diameter and short diameter of the tumor, respectively.
(§2) Mouse body weight was measured twice weekly.
(§3) Two way ANOVA was used to compare the differences in tumor growth trend among groups, and a significant difference was considered when p < 0.05.

[2] = test system: human breast cancer MDA-MB-436 cells; experiment: Efficacy of combined use with olaparib in MDA-MB-436 xenograft tumor model; assay type: in vivo, NOD-SCID mice; details: 30 mg/kg QD intragastric in combination with 10 mg/kg olaparib QD
Source text: The anti-tumor activity of the sodium salt of compound I used in combination with olaparib (MCE, 136925) was studied using a MDA-MB-436 subcutaneous tumor model. 24 female NOD-SCID mice (6-7 weeks old, Beijing Vital River Laboratory Animal Technology Co., Ltd.) were subcutaneously inoculated with 1 × 10^7 human breast cancer MDA-MB-436 cells (natural BRCA1 mutation, Nanjing Cobioer). When the tumors grew to 80-120 mm^3, the mice were randomly divided into four groups with six mice per group: a first group treated with vehicle control (QD) by intragastric administration, a second group treated with a 30 mg/kg solution of the sodium salt of compound I (QD) by intragastric administration, a third group treated with a 10 mg/kg olaparib solution (QD) by intragastric administration, and a fourth group treated with a 30 mg/kg solution of the sodium salt of compound I (QD) by intragastric administration and a 10 mg/kg olaparib solution (QD) by intragastric administration. The vehicle of olaparib was a solution containing 10% DMSO, 50% 2-hydroxypropyl-β-cyclodextrin (Aladdin-F2223139, 60% aqueous solution), and 40% water, the vehicle of the sodium salt of compound I was 10% (w/v) Vitamin E TPGS (Hanhong Chemical-BH-GN0100619-22 1101) aqueous solution, and the vehicle of the vehicle control group was a mixture of the vehicle of olaparib and the vehicle of the sodium salt of compound I (mixed at a volume ratio of 1:1). Mice had free access to food and water throughout the experiment.
as §1, §2, §3

[3] = versus either single drug group

## COc1ccc(Cl)cc1-c1cc(C)ncc1C(=O)Nc1nc2ncc(-c3ccc(C#N)cc3)nc2s1.[Na] [Sodium salt of compound I, Sodium Salt of 4-(5-Chloro-2-methoxyphenyl)-N-[6-(4-cyanophenyl)thiazolo[4,5-b]pyrazin-2-yl]-6-methylnicotinamide]
[1]
  anti-tumor effect of combination with olaparib: strong synergistic anti-tumor effect
[1]; [3]
  tumor volume: significantly lower
[1]; condition of mice, body weight
  safety: good safety
[2]
  anti-tumor effect of combination with olaparib: synergistic anti-tumor effect
[2]; [3]
  tumor volume: significantly lower
[2]; condition of mice, body weight
  safety: good safety
